Test results from ChEMBL document CHEMBL1143658, “Discovery of 2-[(2,4-dichlorophenyl)amino]-N-[(tetrahydro- 2H-pyran-4-yl)methyl]-4-(trifluoromethyl)- 5-pyrimidinecarboxamide, a selective CB2 receptor agonist for the treatment of inflammatory pain” (J Med Chem, 2007).

Experiments:
Cannabinoid receptor 2 [1] = target: T1, Cannabinoid receptor 2 (Homo sapiens, UniProt P34972); experiment: Agonist activity at human recombinant CB2 receptor expressed in Saccharomyces cerevisiae cells; type: functional, cell-based
T1 sequence (P34972 whole entry): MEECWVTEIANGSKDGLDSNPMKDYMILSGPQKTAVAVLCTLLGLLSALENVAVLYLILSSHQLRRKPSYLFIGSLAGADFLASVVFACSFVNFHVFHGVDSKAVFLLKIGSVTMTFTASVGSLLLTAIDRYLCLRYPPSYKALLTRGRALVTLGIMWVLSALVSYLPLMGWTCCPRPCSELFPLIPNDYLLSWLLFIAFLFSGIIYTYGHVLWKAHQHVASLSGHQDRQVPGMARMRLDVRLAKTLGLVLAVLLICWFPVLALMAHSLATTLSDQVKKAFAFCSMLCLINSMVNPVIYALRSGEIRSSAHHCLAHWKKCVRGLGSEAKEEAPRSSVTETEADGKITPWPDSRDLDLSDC

Cannabinoid receptor 2 [2] = target: T1, Cannabinoid receptor 2; experiment: Efficacy at human recombinant CB2 receptor expressed in Saccharomyces cerevisiae cells relative to HU210; type: cell-based
Cytochrome P450 3A4 = Cytochrome P450 3A4 (Homo sapiens, UniProt P08684); experiment: Inhibition of human CYP3A4
Chain of Cytochrome P450 3A4 (P08684 whole entry): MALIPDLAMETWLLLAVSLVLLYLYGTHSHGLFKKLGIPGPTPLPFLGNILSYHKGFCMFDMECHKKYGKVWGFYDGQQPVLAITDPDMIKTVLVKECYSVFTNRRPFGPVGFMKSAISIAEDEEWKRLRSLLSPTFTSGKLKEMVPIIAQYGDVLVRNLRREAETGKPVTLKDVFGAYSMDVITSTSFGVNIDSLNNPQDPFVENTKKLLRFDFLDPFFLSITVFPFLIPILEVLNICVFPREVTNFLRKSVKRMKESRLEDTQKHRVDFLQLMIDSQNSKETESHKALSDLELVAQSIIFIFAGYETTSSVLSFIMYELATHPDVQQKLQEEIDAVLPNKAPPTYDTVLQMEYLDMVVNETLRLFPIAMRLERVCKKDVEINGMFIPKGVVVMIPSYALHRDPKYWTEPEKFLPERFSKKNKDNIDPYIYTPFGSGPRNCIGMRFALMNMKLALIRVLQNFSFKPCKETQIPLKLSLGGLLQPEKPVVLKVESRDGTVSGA

Cytochrome P450 2C9 = Cytochrome P450 2C9 (Homo sapiens, UniProt P11712); experiment: Inhibition of human CYP2C9; type: ADME
Chain of Cytochrome P450 2C9 (P11712 whole entry): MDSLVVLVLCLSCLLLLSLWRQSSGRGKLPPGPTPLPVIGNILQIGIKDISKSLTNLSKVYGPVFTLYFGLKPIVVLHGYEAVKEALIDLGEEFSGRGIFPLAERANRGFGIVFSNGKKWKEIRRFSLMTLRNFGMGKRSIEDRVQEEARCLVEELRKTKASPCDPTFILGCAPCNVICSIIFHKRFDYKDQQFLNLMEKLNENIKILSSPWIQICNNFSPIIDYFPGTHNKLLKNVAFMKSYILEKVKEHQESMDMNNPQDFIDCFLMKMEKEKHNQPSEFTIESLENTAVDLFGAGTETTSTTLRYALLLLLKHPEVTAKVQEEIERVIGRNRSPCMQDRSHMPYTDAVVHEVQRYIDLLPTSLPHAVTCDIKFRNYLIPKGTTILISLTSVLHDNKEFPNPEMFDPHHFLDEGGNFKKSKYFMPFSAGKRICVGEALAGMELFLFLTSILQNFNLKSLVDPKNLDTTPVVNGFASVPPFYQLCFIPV

Cytochrome P450 2C19 = Cytochrome P450 2C19 (Homo sapiens, UniProt P33261); experiment: Inhibition of human CYP2C19; type: ADME
Chain of Cytochrome P450 2C19 (P33261 whole entry): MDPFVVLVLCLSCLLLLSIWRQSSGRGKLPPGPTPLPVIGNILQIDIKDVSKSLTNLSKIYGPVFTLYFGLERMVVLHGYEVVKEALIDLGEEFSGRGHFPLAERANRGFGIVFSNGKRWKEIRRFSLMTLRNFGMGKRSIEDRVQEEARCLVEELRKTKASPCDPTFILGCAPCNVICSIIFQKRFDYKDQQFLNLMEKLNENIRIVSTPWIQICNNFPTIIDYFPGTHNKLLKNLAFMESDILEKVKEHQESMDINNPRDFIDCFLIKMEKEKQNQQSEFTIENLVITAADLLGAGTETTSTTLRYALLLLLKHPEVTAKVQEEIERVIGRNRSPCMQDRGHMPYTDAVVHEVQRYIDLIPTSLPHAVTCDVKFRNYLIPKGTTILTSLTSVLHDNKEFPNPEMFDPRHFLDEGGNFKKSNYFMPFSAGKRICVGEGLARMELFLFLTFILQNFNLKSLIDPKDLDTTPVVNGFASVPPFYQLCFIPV

Cytochrome P450 1A2 = target: T2, Cytochrome P450 1A2 (Homo sapiens, UniProt P05177); experiment: Inhibition of human CYP1A2; type: ADME
T2 sequence (P05177 whole entry): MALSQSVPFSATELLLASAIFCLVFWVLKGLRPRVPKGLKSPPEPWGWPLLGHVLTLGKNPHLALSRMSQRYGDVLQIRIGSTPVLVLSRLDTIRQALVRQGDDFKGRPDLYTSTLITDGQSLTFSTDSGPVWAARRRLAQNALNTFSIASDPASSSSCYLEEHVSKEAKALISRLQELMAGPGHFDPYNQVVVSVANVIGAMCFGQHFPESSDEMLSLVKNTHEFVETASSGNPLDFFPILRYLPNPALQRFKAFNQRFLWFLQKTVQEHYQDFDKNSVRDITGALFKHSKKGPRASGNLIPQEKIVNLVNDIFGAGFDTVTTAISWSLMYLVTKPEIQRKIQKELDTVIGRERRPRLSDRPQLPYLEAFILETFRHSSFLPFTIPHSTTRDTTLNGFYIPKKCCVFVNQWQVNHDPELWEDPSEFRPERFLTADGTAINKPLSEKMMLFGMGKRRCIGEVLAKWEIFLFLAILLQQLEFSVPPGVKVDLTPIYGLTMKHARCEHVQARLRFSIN

Cytochrome P450 2D6 = Cytochrome P450 2D6 (Homo sapiens, UniProt P10635); experiment: Inhibition of human CYP2D6; type: ADME
Chain of Cytochrome P450 2D6 (P10635 whole entry): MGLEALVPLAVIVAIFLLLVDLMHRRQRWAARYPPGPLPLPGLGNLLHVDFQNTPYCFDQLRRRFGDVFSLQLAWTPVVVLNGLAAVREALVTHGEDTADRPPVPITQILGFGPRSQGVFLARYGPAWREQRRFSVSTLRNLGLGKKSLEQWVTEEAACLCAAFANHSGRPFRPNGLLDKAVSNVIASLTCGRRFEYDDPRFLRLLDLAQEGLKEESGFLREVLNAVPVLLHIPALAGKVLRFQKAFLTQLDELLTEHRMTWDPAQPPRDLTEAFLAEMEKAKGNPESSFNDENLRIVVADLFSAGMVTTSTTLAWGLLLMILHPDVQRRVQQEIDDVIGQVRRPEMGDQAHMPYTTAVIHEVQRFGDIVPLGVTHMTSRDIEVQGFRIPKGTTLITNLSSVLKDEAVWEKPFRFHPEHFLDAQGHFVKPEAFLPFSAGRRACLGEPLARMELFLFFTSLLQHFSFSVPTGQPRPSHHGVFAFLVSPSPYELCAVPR

[3] = target: Cannabinoid receptor 1 (Homo sapiens) (UniProt P21554); experiment: Agonist activity at recombinant human CB1 receptor expressed in Saccharomyces cerevisiae cells at 2 uM; type: functional, cell-based
Chain of Cannabinoid receptor 1 (Homo sapiens) (P21554 whole entry): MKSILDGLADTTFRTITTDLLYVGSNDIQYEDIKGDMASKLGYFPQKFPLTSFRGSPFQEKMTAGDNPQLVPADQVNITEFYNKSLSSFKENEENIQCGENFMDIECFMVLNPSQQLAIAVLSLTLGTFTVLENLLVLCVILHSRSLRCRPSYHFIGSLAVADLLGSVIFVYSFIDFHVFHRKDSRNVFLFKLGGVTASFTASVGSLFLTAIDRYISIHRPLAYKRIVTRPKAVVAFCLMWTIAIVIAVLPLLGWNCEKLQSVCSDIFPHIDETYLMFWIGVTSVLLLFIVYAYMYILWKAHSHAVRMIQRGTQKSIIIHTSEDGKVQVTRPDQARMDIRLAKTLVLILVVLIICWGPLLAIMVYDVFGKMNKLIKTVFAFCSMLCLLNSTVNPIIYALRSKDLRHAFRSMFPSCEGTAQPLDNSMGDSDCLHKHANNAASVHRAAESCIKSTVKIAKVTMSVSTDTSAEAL

Liver microsomes = experiment: Intrinsic clearance in rat liver microsome; type: ADME

Structure (SMILES) | EC50 (Cannabinoid receptor 2 [1]) [nM] | Efficacy (Cannabinoid receptor 2 [2]) [%] | IC50 (Cytochrome P450 3A4) [µM] | IC50 (Cytochrome P450 2C9) [µM] | IC50 (Cytochrome P450 2C19) [µM] | IC50 (Cytochrome P450 1A2) [µM] | IC50 (Cytochrome P450 2D6) [µM] | Efficacy [3] [%] | CL (Liver microsomes) [mL/min/g]
COc1ccccc1Nc1ncc(C(=O)NCc2ccccc2)c(C(F)(F)F)n1 | 158 | 77 |  |  |  |  |  |  | 
N#Cc1ccc(CNC(=O)c2cnc(Nc3cccc(Cl)c3)nc2C(F)(F)F)cc1 | 220 | 69 |  |  |  |  |  |  | 
O=C(NCC1CCC1)c1cnc(Nc2cccc(Cl)c2)nc1C(F)(F)F | 40 | 82 | 75 | 3 | 8 | 8 | 22 |  | 
O=C(NCC1CCOCC1)c1cnc(Nc2ccc(Cl)c(Cl)c2)nc1C(F)(F)F | 49 | 83 | > 25 | > 25 | > 25 | 8 | > 25 | 10 | 
O=C(NCC1CCOCC1)c1cnc(Nc2cc(Cl)cc(Cl)c2)nc1C(F)(F)F | 33 | 85 | 38 | 13 | 14 | > 100 | 27 |  | 
O=C(OCc1ccco1)c1cnc(N2CCOCC2)nc1C(F)(F)F | 630 | 55 |  |  |  |  |  |  | 
O=C(NCc1ccccc1)c1cnc(Nc2cccc(F)c2)nc1C(F)(F)F | 310 | 88 |  |  |  |  |  |  | 
N#Cc1cccc(Nc2ncc(C(=O)NCc3ccccc3)c(C(F)(F)F)n2)c1 | 455 | 76 |  |  |  |  |  |  | 
O=C(NCC1CCCC1)c1cnc(Nc2cccc(Cl)c2)nc1C(F)(F)F | 80 | 83 | 65 | 6 | 14 | 32 | > 100 |  | 
CC(C)(C)c1ccc(Nc2ncc(C(=O)NCc3ccccc3)c(C(F)(F)F)n2)cc1 | > 25000 |  |  |  |  |  |  |  | 
CC(=O)Nc1ccc(Nc2ncc(C(=O)NCc3ccccc3)c(C(F)(F)F)n2)cc1 | > 25000 |  |  |  |  |  |  |  | 
O=C(NCc1ccccc1)c1cnc(Nc2ccccc2Cl)nc1C(F)(F)F | 250 | 48 |  |  |  |  |  |  | 
COc1ccccc1CNC(=O)c1cnc(Nc2cccc(Cl)c2)nc1C(F)(F)F | > 25000 | 78 |  |  |  |  |  |  | 
O=C(NCC1CCOCC1)c1cnc(Nc2ccc(F)cc2Cl)nc1C(F)(F)F | 400 | 85 |  |  |  |  |  |  | 
O=C(NCC1CCOCC1)c1cnc(Nc2ccc(F)cc2F)nc1C(F)(F)F | 630 | 81 |  |  |  |  |  |  | 
O=C(NCC1CCOCC1)c1cnc(Nc2ccc(Cl)cc2F)nc1C(F)(F)F | 200 | 80 | > 100 | > 100 | > 100 | > 100 | > 100 |  | 
O=C(NCC1CCOCC1)c1cnc(Nc2c(Cl)cccc2Cl)nc1C(F)(F)F | 630 | 86 |  |  |  |  |  |  | 
O=C(NCc1ccncc1)c1cnc(Nc2cccc(Cl)c2)nc1C(F)(F)F | 60 | 94 | < 0.1 | 0.9 | 1.9 | 0.4 | < 0.1 |  | 
O=C(NCC1(O)CCCCC1)c1cnc(Nc2cccc(Cl)c2)nc1C(F)(F)F | 125 | 83 |  |  | 17 | 11 | 13 |  | 
O=C(NCc1ccccc1)c1cnc(Nc2ccccc2)nc1C(F)(F)F | 400 | 45 |  |  |  |  |  |  | < 0.5
O=C(NCC1CCCCC1)c1cnc(Nc2cccc(Cl)c2)nc1C(F)(F)F | 80 | 82 | 82 | 9 | 19 | > 100 | > 100 |  | 
O=C(NCC1CCOCC1)c1cnc(Nc2cccc(Cl)c2F)nc1C(F)(F)F | 125 | 90 | > 100 | 75 | > 100 | 99 | > 100 |  | 
O=C(NCC1CCOCC1)c1cnc(Nc2cc(F)cc(F)c2)nc1C(F)(F)F | 125 | 91 | > 100 | > 100 | 91 | 24 | 45 |  | 
